{"source": "patent US20230219986A1", "about": "“NOVEL AMINOPYRIMIDINE EGFR INHIBITOR” (QILU PHARMACEUTICAL CO., LTD., priority 2020, published 2023)", "key": {"[1]": {"system": "EGFR wild-type cell line A431", "test": "Cell proliferation inhibition experiment (CellTiter-Glo), A431", "format": "cell-based", "details": "Homo sapiens, A-431, 72 h, A431 cells, Cell Titer-Glo, read-out: A431 EGFR WT IC50", "summary_of_the_method": "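A431 cells, 800 per well, were cultured 24 h and then exposed to serially diluted compound (0.1% DMSO final) for 72 h at 37° C., 5% CO2.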"}, "[2]": {"target": "T1, L858R/T790M/C797S triple mutant EGFR (Homo sapiens, UniProt P00533, C797S/L858R/T790M)", "T1 construct": "purchased Signalchem", "T1 sequence (P00533 25-1210 T790M/C797S/L858R)": "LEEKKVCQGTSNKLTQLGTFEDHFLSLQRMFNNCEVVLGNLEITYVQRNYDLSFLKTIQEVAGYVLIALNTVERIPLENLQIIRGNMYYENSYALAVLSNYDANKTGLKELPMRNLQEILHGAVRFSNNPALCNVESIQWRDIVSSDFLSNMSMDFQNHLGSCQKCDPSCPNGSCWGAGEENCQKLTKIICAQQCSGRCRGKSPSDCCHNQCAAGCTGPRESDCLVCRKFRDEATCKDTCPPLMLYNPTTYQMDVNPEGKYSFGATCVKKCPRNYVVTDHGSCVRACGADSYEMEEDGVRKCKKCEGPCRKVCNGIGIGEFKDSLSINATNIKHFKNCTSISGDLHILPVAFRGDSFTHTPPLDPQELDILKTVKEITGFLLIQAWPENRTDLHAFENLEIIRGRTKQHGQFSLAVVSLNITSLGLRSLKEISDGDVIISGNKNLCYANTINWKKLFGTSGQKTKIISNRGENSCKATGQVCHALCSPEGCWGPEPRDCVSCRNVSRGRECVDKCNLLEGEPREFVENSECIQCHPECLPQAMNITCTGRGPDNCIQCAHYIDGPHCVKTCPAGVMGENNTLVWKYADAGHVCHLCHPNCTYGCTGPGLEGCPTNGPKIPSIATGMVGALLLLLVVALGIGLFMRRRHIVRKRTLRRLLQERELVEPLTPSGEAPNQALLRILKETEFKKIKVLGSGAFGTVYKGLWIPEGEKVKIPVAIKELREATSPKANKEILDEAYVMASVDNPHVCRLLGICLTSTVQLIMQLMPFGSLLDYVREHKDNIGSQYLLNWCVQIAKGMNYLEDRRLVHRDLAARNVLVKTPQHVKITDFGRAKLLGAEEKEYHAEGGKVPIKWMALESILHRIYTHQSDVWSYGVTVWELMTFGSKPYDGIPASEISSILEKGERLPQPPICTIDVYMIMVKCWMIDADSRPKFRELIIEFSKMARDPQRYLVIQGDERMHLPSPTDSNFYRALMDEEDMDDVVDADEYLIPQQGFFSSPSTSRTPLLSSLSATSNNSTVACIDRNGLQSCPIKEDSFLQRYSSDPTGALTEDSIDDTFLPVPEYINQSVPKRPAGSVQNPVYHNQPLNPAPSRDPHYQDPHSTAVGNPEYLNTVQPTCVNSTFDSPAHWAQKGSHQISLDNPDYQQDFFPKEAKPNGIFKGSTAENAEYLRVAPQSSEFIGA", "test": "Enzymology experiment in vitro (HTRF/FRET kinase activity), L858R/T790M/C797S triple mutant EGFR", "format": "biochemical", "details": "HTRF KinEASE-TK, read-out: EGFR (L858R/T790M/C797S) IC50", "summary_of_the_method": "(§1)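 HTRF KinEASE-TK format: EGFR enzyme preincubated with compound 10 min at room temperature, then peptide substrate plus ATP added for 40 min. Detection with EDTA, XL665-streptavidin and Eu³⁺-labeled antibody for 1 h.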"}, "[3]": {"system": "PC9 (De119/T790M/C797S) nude mice xenograft model", "test": "In vivo efficacy research experiment B (compound 243)", "design": "species or system BALB/c-nu mice", "details": "for Tumor volume (mean ± standard error): PC9 (De119/T790M/C797S) xenograft", "description": "To evaluate the antitumor activity and toxic side effects of compound 243 orally administered for 21 days in PC9 (De119/T790M/C797S) nude mice xenograft model.\nBALB/c-nu mice, female, SPF grade, purchased from Beijing Vital River Laboratory Animal Technology Co., Ltd.\nPC9 (De119/T790M/C797S) cells, constructed by Qilu Pharmaceutical Co., Ltd.\nPC9 (De119/T790M/C797S) cells were cultured in RPMI 1640 medium containing 10% FBS at 37° C. in a 5% carbon dioxide incubator; cells in exponential growth phase were collected and inoculated.\nUnder sterile conditions, PC9 (De119/T790M/C797S) cell suspension cultured in vitro was taken, the cell concentration was adjusted to 3×10^7 cells/mL after centrifugation, and subcutaneously inoculated under the right armpit of mice (0.1 mL/ mouse). The day of inoculation was set as day 0.\na, When the average tumor volume was about 140 mm^3, 21 mice with moderate tumor volume were selected and randomly divided into […] according to the tumor volume: G1: solvent control group, G2: compound 243 (15 mg/kg) and G3: compound 243 (40 mg/kg), 7 mice/group.\nb, After animals were grouped, administration was started, and the administration volume was 10 mL/kg, administered orally (po); administered by weight once a day for 21 consecutive days; tumor diameter was measured twice a week.\nc, Tumor volume (TV): the tumor volume was measured twice a week to observe the volume change and growth rate of the tumor. Tumor volume V=½×a×b^2, where a and b represent the long and short diameters of the tumor, respectively. The growth inhibition effect of the compounds on tumor tissue was evaluated by tumor growth inhibition rate TGI (%). […] The data of the administration group and the negative control group were taken on the same day.\nd, During the experiment, the living conditions of the mice, including appearance signs, general behavior, mental state, food intake, respiratory state, feces and urine characteristics, local injection site and other toxicity manifestations, were closely observed.\ne, After the experiment reached the end point, the mice were euthanized, and the animal carcasses were frozen in a freezer and handed over to a qualified medical waste disposal unit for disposal."}, "wild-type EGFR": {"target": "T2, wild-type EGFR (Homo sapiens, UniProt P00533)", "T2 construct": "purchased Signalchem", "T2 sequence (P00533 25-1210)": "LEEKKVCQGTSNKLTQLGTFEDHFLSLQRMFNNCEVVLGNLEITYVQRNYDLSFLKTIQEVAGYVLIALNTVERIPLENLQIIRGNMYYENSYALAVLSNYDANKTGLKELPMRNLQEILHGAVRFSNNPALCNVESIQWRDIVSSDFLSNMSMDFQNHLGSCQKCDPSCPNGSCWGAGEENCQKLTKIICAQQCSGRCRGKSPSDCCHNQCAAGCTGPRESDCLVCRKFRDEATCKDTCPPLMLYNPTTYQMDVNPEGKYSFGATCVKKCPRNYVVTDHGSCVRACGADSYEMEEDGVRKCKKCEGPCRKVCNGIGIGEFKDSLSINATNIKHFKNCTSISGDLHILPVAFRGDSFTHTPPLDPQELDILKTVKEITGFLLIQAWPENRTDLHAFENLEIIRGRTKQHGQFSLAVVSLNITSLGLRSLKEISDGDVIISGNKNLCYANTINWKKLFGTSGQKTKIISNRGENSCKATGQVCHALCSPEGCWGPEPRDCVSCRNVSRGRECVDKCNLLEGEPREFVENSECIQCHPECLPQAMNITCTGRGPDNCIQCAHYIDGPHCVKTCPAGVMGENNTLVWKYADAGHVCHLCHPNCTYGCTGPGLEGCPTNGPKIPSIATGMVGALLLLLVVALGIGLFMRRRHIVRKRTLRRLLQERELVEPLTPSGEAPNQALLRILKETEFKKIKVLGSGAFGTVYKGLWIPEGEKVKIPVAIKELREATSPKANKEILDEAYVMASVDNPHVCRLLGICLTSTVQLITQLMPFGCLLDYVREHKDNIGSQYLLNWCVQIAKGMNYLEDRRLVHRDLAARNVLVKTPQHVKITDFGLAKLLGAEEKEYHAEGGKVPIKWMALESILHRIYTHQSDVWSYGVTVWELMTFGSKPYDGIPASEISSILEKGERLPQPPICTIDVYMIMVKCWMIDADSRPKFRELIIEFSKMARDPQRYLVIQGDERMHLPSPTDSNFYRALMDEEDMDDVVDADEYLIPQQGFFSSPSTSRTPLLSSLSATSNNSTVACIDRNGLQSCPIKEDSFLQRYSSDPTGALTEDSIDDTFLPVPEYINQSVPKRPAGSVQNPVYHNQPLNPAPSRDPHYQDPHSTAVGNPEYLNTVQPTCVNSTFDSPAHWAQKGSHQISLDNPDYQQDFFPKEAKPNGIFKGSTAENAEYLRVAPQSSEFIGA", "test": "Enzymology experiment in vitro (HTRF/FRET kinase activity), wild-type EGFR", "format": "biochemical", "details": "HTRF KinEASE-TK, read-out: EGFR (WT) IC50", "summary_of_the_method": "as §1"}, "[4]": {"target": "Ba/F3 L858R/T790M/C797S EGFR triple mutant cell line (Homo sapiens, UniProt P00533, T790M/C797S/L858R, cells depend on it)", "sequence (P00533 whole entry T790M/C797S/L858R)": "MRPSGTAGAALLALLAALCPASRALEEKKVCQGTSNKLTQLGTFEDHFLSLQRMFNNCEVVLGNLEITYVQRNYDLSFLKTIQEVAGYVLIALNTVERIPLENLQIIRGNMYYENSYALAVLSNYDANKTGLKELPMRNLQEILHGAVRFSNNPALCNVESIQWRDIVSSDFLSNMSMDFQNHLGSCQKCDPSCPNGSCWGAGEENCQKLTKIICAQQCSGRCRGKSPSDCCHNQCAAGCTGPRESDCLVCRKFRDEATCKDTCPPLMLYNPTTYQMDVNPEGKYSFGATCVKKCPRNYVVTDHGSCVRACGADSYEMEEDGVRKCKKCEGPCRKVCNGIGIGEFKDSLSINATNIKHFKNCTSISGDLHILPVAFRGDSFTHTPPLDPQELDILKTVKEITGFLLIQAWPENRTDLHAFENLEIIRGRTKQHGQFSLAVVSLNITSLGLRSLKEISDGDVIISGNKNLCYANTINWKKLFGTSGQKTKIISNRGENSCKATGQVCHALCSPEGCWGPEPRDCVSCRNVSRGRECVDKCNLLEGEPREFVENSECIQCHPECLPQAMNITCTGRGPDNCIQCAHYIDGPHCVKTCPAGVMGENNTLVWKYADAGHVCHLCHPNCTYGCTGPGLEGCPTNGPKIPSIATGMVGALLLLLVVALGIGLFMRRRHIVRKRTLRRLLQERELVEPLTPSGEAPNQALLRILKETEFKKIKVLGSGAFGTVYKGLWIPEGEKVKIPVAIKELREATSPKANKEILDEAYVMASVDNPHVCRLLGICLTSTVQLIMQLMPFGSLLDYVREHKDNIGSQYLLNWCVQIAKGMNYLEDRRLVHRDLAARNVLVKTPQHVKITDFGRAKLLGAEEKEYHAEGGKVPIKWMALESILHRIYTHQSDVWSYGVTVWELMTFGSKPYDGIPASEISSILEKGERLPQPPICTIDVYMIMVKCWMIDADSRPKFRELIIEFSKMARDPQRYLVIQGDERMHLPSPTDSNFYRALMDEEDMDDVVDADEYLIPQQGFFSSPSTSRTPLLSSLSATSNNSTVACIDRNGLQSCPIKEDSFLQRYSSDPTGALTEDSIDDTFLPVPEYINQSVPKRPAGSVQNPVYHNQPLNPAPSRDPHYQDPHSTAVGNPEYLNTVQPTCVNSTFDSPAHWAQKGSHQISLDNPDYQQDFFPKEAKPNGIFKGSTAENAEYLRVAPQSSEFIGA", "test": "Cell proliferation inhibition experiment (CellTiter-Glo), Ba/F3 L858R/T790M/C797S", "format": "cell-based", "details": "72 hours, Cell Titer-Glo, read-out: Ba/F3 (L858R/T790M/C797S) IC50"}, "[5]": {"target": "Ba/F3 De119/T790M/C797S EGFR triple mutant cell line (Homo sapiens, UniProt P00533, T790M/C797S, cells depend on it, form not given)", "sequence (P00533 with tags, fused parts or gaps DEL746-750/T790M/C797S, form open)": "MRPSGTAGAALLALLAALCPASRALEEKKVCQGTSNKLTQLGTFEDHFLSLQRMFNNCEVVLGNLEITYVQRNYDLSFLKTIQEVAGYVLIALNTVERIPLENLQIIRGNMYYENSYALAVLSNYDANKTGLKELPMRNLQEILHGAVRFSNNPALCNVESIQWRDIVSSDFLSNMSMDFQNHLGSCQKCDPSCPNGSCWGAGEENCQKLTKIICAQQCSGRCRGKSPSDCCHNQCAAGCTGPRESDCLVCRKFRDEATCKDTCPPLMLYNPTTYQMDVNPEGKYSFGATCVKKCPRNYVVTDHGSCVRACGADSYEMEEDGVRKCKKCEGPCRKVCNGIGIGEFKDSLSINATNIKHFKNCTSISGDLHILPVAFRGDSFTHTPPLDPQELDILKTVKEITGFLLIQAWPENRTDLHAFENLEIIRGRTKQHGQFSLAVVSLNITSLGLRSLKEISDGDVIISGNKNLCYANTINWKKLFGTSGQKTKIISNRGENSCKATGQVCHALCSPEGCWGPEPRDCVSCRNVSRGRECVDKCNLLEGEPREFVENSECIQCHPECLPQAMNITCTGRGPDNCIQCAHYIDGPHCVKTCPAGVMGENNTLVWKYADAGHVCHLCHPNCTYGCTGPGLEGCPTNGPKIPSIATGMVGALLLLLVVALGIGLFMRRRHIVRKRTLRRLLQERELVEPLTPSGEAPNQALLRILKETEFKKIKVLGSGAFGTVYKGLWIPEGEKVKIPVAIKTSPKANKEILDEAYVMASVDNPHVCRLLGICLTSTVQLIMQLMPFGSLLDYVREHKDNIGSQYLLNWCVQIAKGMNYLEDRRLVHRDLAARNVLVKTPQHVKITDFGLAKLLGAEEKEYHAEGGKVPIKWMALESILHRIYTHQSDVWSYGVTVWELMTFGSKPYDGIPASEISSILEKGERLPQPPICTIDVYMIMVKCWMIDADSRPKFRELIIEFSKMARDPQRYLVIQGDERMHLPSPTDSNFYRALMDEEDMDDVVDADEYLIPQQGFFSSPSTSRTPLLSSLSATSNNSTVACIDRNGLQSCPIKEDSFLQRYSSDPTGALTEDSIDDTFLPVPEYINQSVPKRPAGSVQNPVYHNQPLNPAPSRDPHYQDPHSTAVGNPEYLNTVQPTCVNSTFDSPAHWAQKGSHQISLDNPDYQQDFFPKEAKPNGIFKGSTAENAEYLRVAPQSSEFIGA", "test": "Cell proliferation inhibition experiment (CellTiter-Glo), Ba/F3 De119/T790M/C797S", "format": "cell-based", "details": "Ba/F3 Del19/T790M/C797S EGFR triple mutant cells, 72 hours, Cell Titer-Glo; read-out: Ba/F3 (Del19/T790M/C797S) IC50"}, "[6]": {"details": "15 mg/kg po once a day for 21 days"}, "[7]": {"details": "40 mg/kg po once a day for 21 days"}}, "note": "Marks after values point to notes of the source that are not given here.", "data": [{"smiles": "COc1cc(N2CCC3(CC2)CCN(C(C)(C)CF)CC3)c(-c2cnn(C)c2)cc1Nc1ncc(Br)c(Nc2ccc3nccnc3c2P(C)(C)=O)n1", "note": "[compound 243, (6-((5-Bromo-2-((4-(9-(1-fluoro-2-methylpropan-2-yl)-3,9-diazaspiro[5.5]undecan-3-yl)-2-methoxy-5-(1-methyl-1H-pyrazol-4-yl)phenyl)amino)pyrimidin-4-yl)amino)quinoxalin-5-yl)dimethylphosphine oxide]", "values": [{"measurement": "IC50", "setting": "[1]", "result": 141, "unit": "nM"}, {"measurement": "IC50", "setting": "[2]", "result": 0.54, "unit": "nM"}, {"measurement": "TGI", "setting": "[3]; [6]", "result": 81.4, "unit": "%"}, {"measurement": "Weight change", "setting": "[3]; [6]", "result": "−0.4", "unit": "%"}, {"measurement": "Tumor volume (mean ± standard error)", "setting": "[3]; [6]", "result": "318.6 ± 38.63** mm^3"}, {"measurement": "TGI", "setting": "[3]; [7]", "result": 110.1, "unit": "%"}, {"measurement": "Weight change", "setting": "[3]; [7]", "result": "−6.1", "unit": "%"}, {"measurement": "Tumor volume (mean ± standard error)", "setting": "[3]; [7]", "result": "38.6 ± 5.19** mm^3"}, {"measurement": "tolerability of mice", "setting": "[3]; 15, 40 mg/kg", "result": "well tolerated"}, {"measurement": "tumor growth inhibition (in words)", "setting": "[3]; 15, 40 mg/kg po once a day for 21 days", "result": "significantly inhibit tumor growth"}, {"measurement": "IC50", "setting": "wild-type EGFR", "result": 4.91, "unit": "nM"}, {"measurement": "GI50", "setting": "[4]", "result": 3.95, "unit": "nM"}, {"measurement": "GI50", "setting": "[5]", "result": 1.73, "unit": "nM"}]}]}
